The values below come from US20060194837A1, “Tetrahydroisoquinoline compounds” (priority 2004, published 2006).

Molecules are shown by their SMILES.

One assay has as its target T1, human H3 receptor (Homo sapiens, UniProt Q9Y5N1).
T1 construct: expressed in transfected cells
Briefly: H3 receptor binding (N-[3H]-α-methylhistamine displacement). The conditions noted are these: membranes of SK-N-MC cells expressing cloned human H3 receptor, 0.8 nM N-[3H]-α-methylhistamine, 60 min at 25° C. How it is done:
Briefly, cell pellets from SK-N-MC cells expressing the human H3 receptor were homogenized in 50 mM Tris-HCl/5 mM EDTA and re-centrifuged at 30,000 g for 30 min. Pellets were re-homogenized in 50 mM Tris/6 mM EDTA (pH 7.4). Membranes were incubated with 0.8 nM N-[^3H]-α-methylhistamine plus/minus test compounds for 60 min at 25° C. and harvested by rapid filtration over GF/C glass fiber filters (pretreated with 0.3% polyethylenimine) followed by four washes with ice-cold buffer. Nonspecific binding was defined in the presence of 10 μM histamine.

A further assay deals with T2, Rat SERT (Rattus norvegicus, UniProt P31652).
T2 construct: A rat brain without cerebellum (Zivic Laboratories, Inc.—Pittsburgh, Pa.) was homogenized; tissue Zivic Laboratories, Inc; host or cells: rat brain without cerebellum, membranes
T2 sequence (P31652 whole entry): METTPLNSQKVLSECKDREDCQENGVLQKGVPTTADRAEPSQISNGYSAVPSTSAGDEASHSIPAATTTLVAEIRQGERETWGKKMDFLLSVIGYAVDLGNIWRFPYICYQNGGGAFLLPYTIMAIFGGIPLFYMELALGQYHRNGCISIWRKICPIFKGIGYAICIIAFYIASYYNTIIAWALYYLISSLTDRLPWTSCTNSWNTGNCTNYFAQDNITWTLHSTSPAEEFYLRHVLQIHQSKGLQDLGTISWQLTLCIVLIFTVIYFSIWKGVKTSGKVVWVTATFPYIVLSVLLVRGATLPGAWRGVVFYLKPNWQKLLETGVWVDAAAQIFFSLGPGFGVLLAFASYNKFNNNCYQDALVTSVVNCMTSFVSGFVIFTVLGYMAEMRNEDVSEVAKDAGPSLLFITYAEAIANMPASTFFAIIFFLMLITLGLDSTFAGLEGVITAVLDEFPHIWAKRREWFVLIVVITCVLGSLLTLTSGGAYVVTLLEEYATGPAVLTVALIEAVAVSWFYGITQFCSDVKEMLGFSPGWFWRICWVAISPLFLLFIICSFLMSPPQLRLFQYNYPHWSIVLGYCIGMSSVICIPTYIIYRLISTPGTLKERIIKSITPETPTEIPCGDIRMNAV
Kind of assay: Rat brain SERT binding ([3H]-citalopram displacement). The conditions noted are these: rat brain membranes without cerebellum, 0.6 nM [3H]-citalopram, 60 min at 25° C.; read-out: Rat SERT Ki. How it is done: The supernatant was removed and re-centrifuged at 15,000 rpm for 30 min. […] Membranes were incubated with 0.6 nM [^3H]-Citalopram plus/minus test compounds for 60 min at 25° C. and harvested by rapid filtration over GF/C glass fiber filters (pretreated with 0.3% polyethylenimine) followed by four washes with ice-cold buffer.

By Ki is commonly meant a measure of affinity in units of concentration, obtained from inhibition or displacement.

T1 sequence (Q9Y5N1 whole entry): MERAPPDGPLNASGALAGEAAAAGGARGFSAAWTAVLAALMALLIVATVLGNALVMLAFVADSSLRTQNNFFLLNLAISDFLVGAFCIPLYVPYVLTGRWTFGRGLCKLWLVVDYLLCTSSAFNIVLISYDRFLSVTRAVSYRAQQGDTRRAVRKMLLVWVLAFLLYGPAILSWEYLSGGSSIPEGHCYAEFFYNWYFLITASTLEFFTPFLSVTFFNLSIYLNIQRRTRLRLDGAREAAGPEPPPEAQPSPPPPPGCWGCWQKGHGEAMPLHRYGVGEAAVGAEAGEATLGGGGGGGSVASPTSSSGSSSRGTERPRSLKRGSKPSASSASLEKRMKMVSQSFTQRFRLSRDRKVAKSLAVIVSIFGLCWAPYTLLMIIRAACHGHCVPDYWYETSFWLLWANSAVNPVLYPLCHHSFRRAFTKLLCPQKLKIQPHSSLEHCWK

Consider `COc1ccc(C2CN(C)Cc3cc(OC[C@@H]4CN(C(C)C)CCO4)ccc32)cc1` (mixture of isomers) [Example 255, 7-(4-Isopropyl-morpholin-2S-ylmethoxy)-4-(4-methoxy-phenyl)-2-methyl-1,2,3,4-tetrahydro-isoquinoline], for which the Ki on human H3 receptor was 2 nM; on Rat SERT, 16 nM.

Take `CSc1ccc(C2CN(C)Cc3cc(OCCCN4CCC(F)CC4)ccc32)cn1` (stereo not drawn) [Example 187, 7-[3-(4-Fluoro-piperidin-1-yl)-propoxy]-2-methyl-4-(6-methylsulfanyl-pyridin-3-yl)-1,2,3,4-tetrahydro-isoquinoline]: the values for the Ki at human H3 receptor and on Rat SERT were 5 nM and 3 nM, respectively.

Take `COc1ccc(C2CN(C)Cc3cc(OC[C@@H]4CN(C5CC5)CCO4)ccc32)cc1` (single isomer, unassigned) [Example 260B, 7-(4-Cyclopropyl-morpholin-2S-ylmethoxy)-4-(4-methoxy-phenyl)-2-methyl-1,2,3,4-tetrahydro-isoquinoline]: the results for the inhibition constant (Ki) at human H3 receptor and on Rat SERT were 29 nM and 26 nM, respectively.

With `CN1Cc2cc(OCCCN3CCOCC3)ccc2C(c2ccc(SC(F)(F)F)cc2)C1` (stereo not drawn) [Example 218, 2-Methyl-7-(3-morpholin-4-yl-propoxy)-4-(4-trifluoromethylsulfanyl-phenyl)-1,2,3,4-tetrahydro-isoquinoline], the Ki was determined as 38 nM on human H3 receptor and 36 nM on Rat SERT.

As for `COc1ccc(C2CN(C)Cc3cc(OCC4CCN(C5CCCC5)CC4)ccc32)cc1` (stereo not drawn) [Example 86, 7-(1-Cyclopentyl-piperidin-4-ylmethoxy)-4-(4-methoxy-phenyl)-2-methyl-1,2,3,4-tetrahydro-isoquinoline], the Ki at human H3 receptor came out at 11 nM; on Rat SERT, 5 nM.

Take `COc1ccc(C2CN(C)Cc3cc(OCC4CCN(C5CCC5)CC4)ccc32)cc1Cl` (stereo not drawn) [Example 106, 4-(3-Chloro-4-methoxy-phenyl)-7-(1-cyclobutyl-piperidin-4-ylmethoxy)-2-methyl-1,2,3,4-tetrahydro-isoquinoline]: the values for the Ki on human H3 receptor and at Rat SERT were 6 nM and 25 nM, respectively.

For the compound `COc1ccc(C2CN(C)Cc3cc(OCCC4CCCN4C)ccc32)cc1` (mixture of isomers) [Example 240, 4-(4-Methoxy-phenyl)-2-methyl-7-[2-(1-methyl-pyrrolidin-2-yl)-ethoxy]-1,2,3,4-tetrahydro-isoquinoline], the Ki on human H3 receptor was found to be 4 nM; on Rat SERT, 3 nM.

Regarding `COc1ccc(C2CN(C)Cc3cc(OCCCN4CC(C(c5ccccc5)c5ccccc5)C4)ccc32)cc1` (stereo not drawn) [Example 137, 7-[3-(3-Benzhydryl-azetidin-1-yl)-propoxy]-4-(4-methoxy-phenyl)-2-methyl-1,2,3,4-tetrahydro-isoquinoline], the Ki at human H3 receptor was found to be 5000 nM; on Rat SERT it was 77 nM.

Turning to `COc1ccc(C2CN(C)Cc3cc(OC4CCNCC4)ccc32)cc1F` (stereo not drawn) [Example 151, 4-(3-Fluoro-4-methoxy-phenyl)-2-methyl-7-(piperidin-4-yloxy)-1,2,3,4-tetrahydro-isoquinoline], the Ki at human H3 receptor was 119 nM; at Rat SERT, 3 nM.

Consider `COc1ccc(C2CN(C)Cc3cc(OCCCN(C)c4nc5ccccc5s4)ccc32)cc1` (stereo not drawn) [Example 19, Benzothiazol-2-yl-{3-[4-(4-methoxy-phenyl)-2-methyl-1,2,3,4-tetrahydro-isoquinolin-7-yloxy]-propyl}-methyl-amine], for which the values for the Ki at human H3 receptor and on Rat SERT were 2000 nM and 8 nM, respectively.

Consider `CN1Cc2cc(OCCCN3CCC(F)CC3)ccc2C(c2ccc(C#C[Si](C)(C)C)nc2)C1` (stereo not drawn) [Example 189, 7-[3-(4-Fluoro-piperidin-1-yl)-propoxy]-2-methyl-4-(6-trimethylsilanylethynyl-pyridin-3-yl)-1,2,3,4-tetrahydro-isoquinoline], for which the Ki was found to be 12 nM on human H3 receptor and 108 nM at Rat SERT.

Turning to `COc1ccc(C2CN(C)Cc3cc(OCCCN4CCOC[C@@H]4CO)ccc32)cc1` (mixture of isomers) [Example 183A, (4-{3-[4-(4-Methoxy-phenyl)-2-methyl-1,2,3,4-tetrahydro-isoquinolin-7-yloxy)-propyl}-morpholin-3S-yl)-methanol], the Ki on human H3 receptor was 6 nM; at Rat SERT it was 1 nM.

As to `COc1ccc(C2CN(C)Cc3cc(OCCCN4CCOCC4)c(C)cc32)cc1` (stereo not drawn) [Example 266, 4-(4-Methoxy-phenyl)-2,6-dimethyl-7-(3-morpholin-4-yl-propoxy)-1,2,3,4-tetrahydro-isoquinoline], the Ki is 14 nM on human H3 receptor and 31 nM on Rat SERT.

As to `C=CCN1CCN(CCCOc2ccc3c(c2)CN(C)CC3c2ccc(OC)cc2)CC1` (stereo not drawn) [Example 206, 7-[3-(4-Allyl-piperazin-1-yl)-propoxy]-4-(4-methoxy-phenyl)-2-methyl-1,2,3,4-tetrahydro-isoquinoline], the Ki at human H3 receptor worked out at 37 nM; on Rat SERT, 3 nM.

As to `COc1ccc(C2CN(Cc3ccccc3)Cc3cc(OCCCN4CCCCC4)ccc32)cc1` (stereo not drawn) [Example 65, 2-Benzyl-4-(4-methoxy-phenyl)-7-(3-piperidin-1-yl-propoxy)-1,2,3,4-tetrahydro-isoquinoline], the Ki on human H3 receptor turned out to be 7 nM; on Rat SERT, 3000 nM.

As to `COc1ccc(C2CN(C)Cc3cc(OCCCNC(C)C)ccc32)cc1` (stereo not drawn) [Example 230, Isopropyl-{3-[4-(4-methoxy-phenyl)-2-methyl-1,2,3,4-tetrahydro-isoquinolin-7-yloxy]-propyl}-amine], the Ki amounted to 17 nM on human H3 receptor and 1 nM on Rat SERT.

As for `COc1ccc(C2CN(C)Cc3c2ccc(OCCCN2CCOCC2)c3C)cc1` (stereo not drawn) [Example 269, 4-(4-Methoxy-phenyl)-2,8-dimethyl-7-(3-morpholin-4-yl-propoxy)-1,2,3,4-tetrahydro-isoquinoline], the Ki on human H3 receptor came to 44 nM; on Rat SERT, 23 nM.

`COc1ccc(C2CN(C)Cc3cc(OCCCN(C)C(C)C)ccc32)cc1` (stereo not drawn) [Example 233, Isopropyl-{3-[4-(4-methoxy-phenyl)-2-methyl-1,2,3,4-tetrahydro-isoquinolin-7-yloxy]-propyl}-methyl-amine]: the Ki on human H3 receptor worked out at 4 nM; at Rat SERT, 3 nM.

As for `CCOC(=O)C1CCN(CCCOc2ccc3c(c2)CN(C)CC3c2ccc(OC)cc2)CC1` (stereo not drawn) [Example 33, 1-{3-[4-(4-Methoxy-phenyl)-2-methyl-1,2,3,4-tetrahydro-isoquinolin-7-yloxy]-propyl}-piperidine-4-carboxylic acid ethyl ester], the inhibition constant (Ki) came to 172 nM at human H3 receptor and 5 nM at Rat SERT.

Turning to `CN1Cc2cc(OCCCN3CCC(F)CC3)ccc2C(c2cc(Cl)cc(Cl)c2)C1` (stereo not drawn) [Example 56, 4-(3,5-Dichloro-phenyl)-7-[3-(4-fluoro-piperidin-1-yl)-propoxy]-2-methyl-1,2,3,4-tetrahydro-isoquinoline], the Ki on human H3 receptor was found to be 20 nM; at Rat SERT it was 42 nM.

As for `CSc1ccc(C2CN(C)Cc3cc(OC4CCNCC4)ccc32)cc1` (stereo not drawn) [Example 149, 2-Methyl-4-(4-methylsulfanyl-phenyl)-7-(piperidin-4-yloxy)-1,2,3,4-tetrahydro-isoquinoline], the Ki turned out to be 240 nM on human H3 receptor and 4 nM at Rat SERT.

Consider `CN1Cc2cc(OCCCN3CCC(F)CC3)ccc2C(c2ccc(Br)nc2)C1` (stereo not drawn) [Example 186, 4-(6-Bromo-pyridin-3-yl)-7-[3-(4-fluoro-piperidin-1-yl)-propoxy]-2-methyl-1,2,3,4-tetrahydro-isoquinoline], for which the values for the Ki on human H3 receptor and on Rat SERT were 6 nM and 10 nM, respectively.

On to `COc1ccc(C2CN(C)Cc3cc(OCCCN4CCN(c5ccccc5O)CC4)ccc32)cc1` (stereo not drawn) [Example 203, 2-(4-{3-[4-(4-Methoxy-phenyl)-2-methyl-1,2,3,4-tetrahydro-isoquinolin-7-yloxy]-propyl}-piperazin-1-yl)-phenol], for which the Ki amounted to 504 nM at human H3 receptor and 8 nM at Rat SERT.

Take `CCCN1CCC(COc2ccc3c(c2)CN(C)CC3c2ccc(OC)c(Cl)c2)CC1` (stereo not drawn) [Example 108, 4-(3-Chloro-4-methoxy-phenyl)-2-methyl-7-(1-propyl-piperidin-4-ylmethoxy)-1,2,3,4-tetrahydro-isoquinoline]: the Ki on human H3 receptor stood at 12 nM; at Rat SERT it was 13 nM.

For the compound `COc1ccc(C2CN(C)Cc3cc(OCCCNC4CCOCC4)ccc32)cc1` (stereo not drawn) [Example 223, {3-[4-(4-Methoxy-phenyl)-2-methyl-1,2,3,4-tetrahydro-isoquinolin-7-yloxy]-propyl}-(tetrahydro-pyran-4-yl)-amine], the Ki on human H3 receptor was 59 nM; at Rat SERT, 5 nM.

As to `COc1ccc(C2CN(C)Cc3cc(OC[C@@H]4CN(C5CC5)CCO4)ccc32)cc1` (mixture of isomers) [Example 260, 7-(4-Cyclopropyl-morpholin-2S-ylmethoxy)-4-(4-methoxy-phenyl)-2-methyl-1,2,3,4-tetrahydro-isoquinoline], the Ki is 3 nM at human H3 receptor and 29 nM on Rat SERT.

With `COc1ccc(C2CN(C)Cc3cc(OCCCN4CCN(C(=O)OC(C)(C)C)CC4)ccc32)cc1` (stereo not drawn) [Example 211, 4-{3-[4-(4-Methoxy-phenyl)-2-methyl-1,2,3,4-tetrahydro-isoquinolin-7-yloxy]-propyl}-piperazine-1-carboxylic acid tert-butyl ester], the Ki at human H3 receptor was found to be 823 nM; at Rat SERT, 27 nM.
